Measurements as given in patent US8802674B2, “Aminopyrimidine derivatives as LRRK2 modulators” (Genentech, Inc., priority 2011, dated 2014).

Biological target: LRRK2 (Homo sapiens (Human), UniProt Q5S007, G2019S)
Experiment: In Vitro LRRK2 LabChip Assay
Assay type: biochemical
Conditions: Table 4
Procedure, shortened: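 Phosphorylated and unphosphorylated peptides were separated by capillary electrophoresis and quantified by fluorescence. Ki came from a tight-binding equation, given in μM.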

Chain of LRRK2 (Q5S007 970-2527 G2019S limits assumed): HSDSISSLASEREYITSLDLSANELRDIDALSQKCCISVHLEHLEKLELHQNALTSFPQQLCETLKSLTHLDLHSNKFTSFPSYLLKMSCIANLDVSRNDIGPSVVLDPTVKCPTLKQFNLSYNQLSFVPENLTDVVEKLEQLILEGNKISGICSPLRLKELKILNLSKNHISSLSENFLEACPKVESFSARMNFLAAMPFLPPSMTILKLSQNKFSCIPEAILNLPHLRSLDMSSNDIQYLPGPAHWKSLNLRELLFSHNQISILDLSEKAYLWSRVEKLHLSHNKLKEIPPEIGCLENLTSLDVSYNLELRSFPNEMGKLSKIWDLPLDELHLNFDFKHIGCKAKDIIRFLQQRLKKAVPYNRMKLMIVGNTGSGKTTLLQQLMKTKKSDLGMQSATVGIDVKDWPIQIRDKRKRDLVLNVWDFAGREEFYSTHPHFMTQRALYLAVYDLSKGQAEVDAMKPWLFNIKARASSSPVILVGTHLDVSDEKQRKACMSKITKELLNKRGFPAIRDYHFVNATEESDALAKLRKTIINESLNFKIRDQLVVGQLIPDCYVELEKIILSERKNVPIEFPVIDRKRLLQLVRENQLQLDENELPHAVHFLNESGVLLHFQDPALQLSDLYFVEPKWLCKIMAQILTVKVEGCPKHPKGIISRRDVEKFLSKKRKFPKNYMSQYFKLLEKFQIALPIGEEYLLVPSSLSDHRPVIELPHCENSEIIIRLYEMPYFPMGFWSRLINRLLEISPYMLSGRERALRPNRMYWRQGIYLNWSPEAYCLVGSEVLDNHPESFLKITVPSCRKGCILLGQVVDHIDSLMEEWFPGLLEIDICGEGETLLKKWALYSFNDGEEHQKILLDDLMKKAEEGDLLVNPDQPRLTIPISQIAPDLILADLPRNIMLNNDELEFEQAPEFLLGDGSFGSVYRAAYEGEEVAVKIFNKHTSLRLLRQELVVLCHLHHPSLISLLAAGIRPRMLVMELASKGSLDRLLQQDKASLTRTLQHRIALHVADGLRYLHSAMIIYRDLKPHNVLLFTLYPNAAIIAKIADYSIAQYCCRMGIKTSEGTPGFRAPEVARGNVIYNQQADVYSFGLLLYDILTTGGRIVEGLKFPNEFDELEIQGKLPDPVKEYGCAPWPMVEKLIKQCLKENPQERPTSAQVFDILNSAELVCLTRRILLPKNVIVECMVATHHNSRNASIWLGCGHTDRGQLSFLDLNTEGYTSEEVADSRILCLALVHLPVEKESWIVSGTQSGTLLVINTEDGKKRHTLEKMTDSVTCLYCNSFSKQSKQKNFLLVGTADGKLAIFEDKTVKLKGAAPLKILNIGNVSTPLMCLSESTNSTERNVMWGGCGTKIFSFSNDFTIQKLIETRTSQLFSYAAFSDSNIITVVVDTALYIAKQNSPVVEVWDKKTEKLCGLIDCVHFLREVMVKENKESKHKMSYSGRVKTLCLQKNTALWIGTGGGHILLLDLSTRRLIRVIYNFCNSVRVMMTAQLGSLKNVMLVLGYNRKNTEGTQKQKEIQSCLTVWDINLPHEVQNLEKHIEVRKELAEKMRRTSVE

SMILES	Ki [nM]
CNc1nc(Nc2cc(F)c(C(=O)N3CCC(C#N)C3)cc2OC)ncc1C(F)(F)F (stereo not drawn) [Example 178, l-[2-Fluoro-5-methoxy-4-(4-methylamino-5-trifluoromethyl-pyrimidin-2-ylamino)-benzoyl]-pyrrolidine-3-carbonitrile]	1.8
CNC(=O)c1cc(OC)c(Nc2ncc(C(F)(F)F)c(NC)n2)cc1F [Example 180, 2-Fluoro-5-methoxy-N-methyl-4-(4-methylamino-5-trifluoromethyl-pyrimidin-2-ylamino)-benzamide]	4.7
CNc1nc(Nc2cc(OC)c(C(=O)N(C)CC(C)(C)O)cc2Cl)ncc1C(F)(F)F [Example 181, 5-Chloro-N-(2-hydroxy-2-methyl-propyl)-2-methoxy-N-methyl-4-(4-methylamino-5-trifluoromethyl-pyrimidin-2-ylamino)-benzamide]	6.3
COc1cc(C(=O)N2CCOCC2)ccc1Nc1ncc(C2CC2)c(OC)n1 [Example 182, (4-(5-cyclopropyl-4-methoxypyrimidin-2-ylamino)-3-methoxyphenyl) (morpholino) methanone]	89.5
CNc1nc(Nc2ccc(C(=O)N3CCOCC3)cc2OC)ncc1C(C)=O [Example 183, l-{2-[2-Methoxy-4-(morpholine-4-carbonyl)-phenylamino]-4-methylamino-pyrimidin-5-yl}-ethanone]	68.2
COCCNc1nc(Nc2cc(F)c(C(=O)N3CCOCC3)cc2OC)ncc1Br [Example 185, {4-[5-Bromo-4-(2-methoxy-ethylamino)-pyrimidin-2-ylamino]-2-fluoro-5-methoxy-phenyl}-morpholin-4-yl-methanone]	6.9
COCCNc1nc(Nc2ccc(C(=O)N3CCOCC3)cc2OC(C)C)ncc1Br [Example 186, {4-[5-Bromo-4-(2-methoxy-ethylamino)-pyrimidin-2-ylamino]-3-isopropoxy-phenyl}-morpholin-4-yl-methanone]	13.5
COCCOc1nc(Nc2ccc(C(=O)N3CCOCC3)cc2OC2CCC2)ncc1Cl [Example 187, {4-[5-Chloro-4-(2-methoxy-ethoxy)-pyrimidin-2-ylamino]-3-cyclobutoxy-phenyl}-morpholin-4-yl-methanone]	14.3
CNc1nc(Nc2ccc(C(=O)N3CC4(COC4)C3)cc2OC2CCCC2)ncc1Cl [Example 188, [4-(5-Chloro-4-methylamino-pyrimidin-2-ylamino)-3-cyclopentyloxy-phenyl]-(2-oxa-6-aza-spiro[3.3]hept-6-yl)-methanone]	6.3
CNc1nc(Nc2ccc(C(=O)N3CC4(COC4)C3)cc2OC)ncc1Cl [Example 190, [4-(5-Chloro-4-methylamino-pyrimidin-2-ylamino)-3-methoxy-phenyl]-(2-oxa-6-aza-spiro[3.3]hept-6-yl)-methanone]	6.3
CNc1nc(Nc2ccc(C(=O)N3CC(F)(F)OC(F)(F)C3)cc2OC)ncc1C#N [Example 191, 2-(2-methoxy-4-(2,2,6,6-tetrafluoromorpholine-4-carbonyl)phenylamino)-4-(methylamino) pyrimidine-5-carbonitrile]	20.8
CNc1nc(Nc2ccc(C(=O)N3CCOCC3)cc2C2CC2)ncc1Cl [Example 193, [4-(5-Chloro-4-methylamino-pyrimidin-2-ylamino)-3-cyclopropyl-phenyl]-morpholin-4-yl-methanone]	23.9
CNc1nc(Nc2ccc(C(=O)NC3CC(F)(F)C3)cc2OC)ncc1C#N [Example 194, 4-(5-Cyano-4-methylamino-pyrimidin-2-ylamino)-N-(3,3-difluoro-cyclobutyl)-3-methoxy-benzamide]	6.5
CNc1nc(Nc2ccc(C(=O)NCC3CC3)cc2OC)ncc1C#N [Example 195, 4-(5-Cyano-4-methylamino-pyrimidin-2-ylamino)-N-cyclopropylmethyl-3-methoxy-benzamide]	4.2
CNc1nc(Nc2ccc(C(=O)N3CC[C@H](F)C3)cc2OC)ncc1C#N [Example 196, 2-[4-((S)-3-Fluoro-pyrrolidine-1-carbonyl)-2-methoxy-phenylamino]-4-methylamino-pyrimidine-5-carbonitrile]	6
CNC(=O)c1ccc(Nc2ncc(C#N)c(NC)n2)c(OC)c1 [Example 197, 4-(5-Cyano-4-methylamino-pyrimidin-2-ylamino)-3-methoxy-N-methyl-benzamide]	6.6
CCN(CC)C(=O)c1ccc(Nc2ncc(C#N)c(NC)n2)c(OC)c1 [Example 199, 4-(5-Cyano-4-methylamino-pyrimidin-2-ylamino)-N,N-diethyl-3-methoxy-benzamide]	6.8
CNc1nc(Nc2ccc(C(=O)NC(C)C)cc2OC)ncc1C#N [Example 200, 4-(5-Cyano-4-methylamino-pyrimidin-2-ylamino)-N-isopropyl-3-methoxy-benzamide]	4.4
CCNC(=O)c1ccc(Nc2ncc(C#N)c(NC)n2)c(OC)c1 [Example 203, 4-(5-Cyano-4-methylamino-pyrimidin-2-ylamino)-N-ethyl-3-methoxy-benzamide]	9.6

Now from value to molecule:

Ki [nM]	SMILES
3.3	CNc1nc(Nc2ccc(C(=O)N3CCCCC3)cc2OC)ncc1C#N [Example 204, 2-[2-Methoxy-4-(piperidine-1-carbonyl)-phenylamino]-4-methylamino-pyrimidine-5-carbonitrile]
12.1	CNc1nc(Nc2ccc(C(=O)NCC(F)F)cc2OC)ncc1C#N [Example 205, 4-(5-Cyano-4-methylamino-pyrimidin-2-ylamino)-N-(2,2-difluoro-ethyl)-3-methoxy-benzamide]
4.6	CNc1nc(Nc2ccc(C(=O)NC(C)(C)C)cc2OC)ncc1C#N [Example 206, N-tert-Butyl-4-(5-cyano-4-methylamino-pyrimidin-2-ylamino)-3-methoxy-benzamide]
5.4	CCN(C(=O)c1ccc(Nc2ncc(C#N)c(NC)n2)c(OC)c1)C(C)C [Example 207, 4-(5-Cyano-4-methylamino-pyrimidin-2-ylamino)-N-ethyl-N-isopropyl-3-methoxy-benzamide]
8.1	CNc1nc(Nc2ccc(C(=O)N3CCC(F)(F)C3)cc2OC)ncc1C#N [Example 208, 2-[4-(3,3-Difluoropyrrolidine-1-carbonyl)-2-methoxy-phenylamino]-4-methylamino-pyrimidine-5-carbonitrile]
26.4	CNc1nc(Nc2ccc(C(=O)N3CCC3)cc2OC)ncc1C#N [Example 212, 2-[4-(Azetidine-1-carbonyl)-2-methoxy-phenylamino]-4-methylamino-pyrimidine-5-carbonitrile]
6.8	CNc1nc(Nc2ccc(C(=O)N(C)C(C)C)cc2OC)ncc1C#N [Example 213, 4-(5-Cyano-4-methylamino-pyrimidin-2-ylamino)-N-isopropyl-3-methoxy-N-methyl-benzamide]
18.4	COc1cc(C(=O)N2CCOCC2)ccc1Nc1ncc(Cl)c(NC2CCOC2)n1 (stereo not drawn) [Example 214, {4-[5-Chloro-4-(tetrahydro-furan-3-ylamino)-pyrimidin-2-ylamino]-3-methoxy-phenyl}-morpholin-4-yl-methanone]
9.4	CNc1nc(Nc2ccc(C(=O)N3CCOCC3)cc2OC(C)C)ncc1C(F)(F)F [Example 215, [3-Isopropoxy-4-(4-methylamino-5-trifluoromethyl-pyrimidin-2-ylamino)-phenyl]-morpholin-4-yl-methanone]
4.2	CCOc1cc(C(=O)N2CCOCC2)ccc1Nc1ncc(C(F)(F)F)c(NC)n1 [Example 216, [3-Ethoxy-4-(4-methylamino-5-trifluoromethyl-pyrimidin-2-ylamino)-phenyl]-morpholin-4-yl-methanone]
2	CNc1nc(Nc2ccc(C(=O)N3CCOCC3)cc2OC2CC2)ncc1Cl [Example 217, [4-(5-Chloro-4-methylamino-pyrimidin-2-ylamino)-3-cyclopropoxy-phenyl]-morpholin-4-yl-methanone]
2.5	COc1nc(Nc2ccc(C(=O)N3CCOCC3)cc2OC2CC2)ncc1Br [Example 218, [4-(5-Bromo-4-methoxy-pyrimidin-2-ylamino)-3-cyclopropoxy-phenyl]-morpholin-4-yl-methanone]
26.4	COc1cc(C(=O)N2CCOCC2)ccc1Nc1ncc(Cl)c(NCCS(C)(=O)=O)n1 [Example 219, {4-[5-Chloro-4-(2-methanesulfonyl-ethylamino)-pyrimidin-2-ylamino]-3-methoxy-phenyl}-morpholin-4-yl-methanone]
3.4	CNc1nc(Nc2cc(OC)c(CC(=O)N3CCOCC3)cc2OC)ncc1Br [Example 220, 2-[4-(5-Bromo-4-methylamino-pyrimidin-2-ylamino)-2,5-dimethoxy-phenyl] 1-morpholin-4-yl-ethanone]
8.7	CNc1nc(Nc2cc(OC)c(CC(=O)N3CCOCC3)cc2OC)ncc1Cl [Example 221, 2-[4-(5-Chloro-4-methylamino-pyrimidin-2-ylamino)-2,5-dimethoxy-phenyl] 1-morpholin-4-yl-ethanone]
9	CNc1nc(Nc2ccc(CC(=O)N3CCOCC3)cc2OC)ncc1Cl [Example 222, 2-[4-(5-Chloro-4-methylamino-pyrimidin-2-ylamino)-3-methoxy-phenyl]-1-morpholin-4-yl-ethanone]
5.2	CNc1nc(Nc2ccc(CC(=O)N3CCOCC3)cc2OC)ncc1C(F)(F)F [Example 223, 2-[3-Methoxy-4-(4-methylamino-5-trifluoromethyl-pyrimidin-2-ylamino)-phenyl]-1-morpholin-4-yl-ethanone]
5.6	COc1cc(CC(=O)N2CCOCC2)ccc1Nc1ncc(Br)c(OC)n1 [Example 226, 2-[4-(5-Bromo-4-methoxy-pyrimidin-2-ylamino)-3-methoxy-phenyl]-1-morpholin-4-yl-ethanone]
3.7	CNc1nc(Nc2cc(OC)c(CC(=O)N3CCOCC3)cc2OC)ncc1C(F)(F)F [Example 227, 2-[2,5-Dimethoxy-4-(4-methylamino-5-trifluoromethyl-pyrimidin-2-ylamino)-phenyl]-1-morpholin-4-yl-ethanone]
3.8	CNc1nc(Nc2cc(OC)c(C(=O)NCCCN)cc2Cl)ncc1Cl [Example 228, N-(3-Amino-propyl)-5-chloro-4-(5-chloro-4-methylamino-pyrimidin-2-ylamino)-2-methoxy-benzamide]
